Among the data in BindingDB's records for doi:10.1016/j.bmcl.2008.01.028 (Nih, 2008) are IC50 values, retold here.

The target in the assay is cAMP-specific 3',5'-cyclic phosphodiesterase 4A (Homo sapiens, UniProt P27815). The experiment in a line: PDE4A Inhibition Assay. The method, then: Inhibition of PDE4A was performed using IMAP technology (Molecular Devices, CA). PDE4A1A mixture was dispensed into 1536-well black/solid bottom assay plates (Greiner Bio-One North America, NC) using a Flying Reagent Dispenser (Aurora Discovery, CA). The plates were centrifuged at 1000 rpm for 30s and compound was transferred to the assay plate using a Kalypsys pin tool. After incubation, cAMP was dispensed into the plates to initiate the reaction. IMAP binding reagent was then added to the assay plate after the reaction.
cAMP-specific 3',5'-cyclic phosphodiesterase 4A, sequence (P27815 whole entry): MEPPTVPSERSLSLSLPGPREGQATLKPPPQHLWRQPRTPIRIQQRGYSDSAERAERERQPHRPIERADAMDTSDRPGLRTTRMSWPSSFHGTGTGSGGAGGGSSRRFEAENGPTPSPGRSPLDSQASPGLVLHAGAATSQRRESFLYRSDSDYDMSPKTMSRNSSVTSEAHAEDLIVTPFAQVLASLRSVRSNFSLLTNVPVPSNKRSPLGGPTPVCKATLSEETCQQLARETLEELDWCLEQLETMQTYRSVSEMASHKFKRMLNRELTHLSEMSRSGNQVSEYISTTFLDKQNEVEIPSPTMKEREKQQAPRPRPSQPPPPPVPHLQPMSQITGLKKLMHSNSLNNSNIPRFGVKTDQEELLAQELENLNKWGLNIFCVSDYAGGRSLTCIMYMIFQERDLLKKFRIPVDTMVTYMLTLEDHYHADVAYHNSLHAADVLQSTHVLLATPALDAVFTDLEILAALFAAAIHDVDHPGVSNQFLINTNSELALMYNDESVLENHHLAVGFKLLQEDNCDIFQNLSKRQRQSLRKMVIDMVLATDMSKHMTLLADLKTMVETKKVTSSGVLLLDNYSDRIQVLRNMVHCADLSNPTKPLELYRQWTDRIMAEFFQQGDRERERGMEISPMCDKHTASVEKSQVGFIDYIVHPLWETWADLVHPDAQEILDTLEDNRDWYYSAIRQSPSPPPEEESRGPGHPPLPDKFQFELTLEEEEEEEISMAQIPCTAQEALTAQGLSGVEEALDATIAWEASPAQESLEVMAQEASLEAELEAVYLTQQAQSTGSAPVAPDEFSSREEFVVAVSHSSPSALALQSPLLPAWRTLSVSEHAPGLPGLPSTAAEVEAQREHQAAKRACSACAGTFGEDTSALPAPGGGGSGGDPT

As to `COc1cccc(OC)c1C1=Nn2c(nnc2-c2ccccc2O)SC1` [triazolothiadiazine, 11K], the IC50 (in general, the concentration needed to halve the response being measured) is more than 20 µM.
